From patent US20180179256A1 (priority 2015, published 2018)
Entries after “also recorded” stand apart in the source; their conditions may differ.

Legend:
HLA-DR = format: cell-based, human
Normal subject PBMC = format: cell-based, human

Sequence | % Inhibition by HLA-DR blocking Ab (HLA-DR) | Peptide-specific T cell response on blocking HLA-DR (in words) (HLA-DR) | Suppression of T cell response to pool of H7N9 ICS peptides (Normal subject PBMC) | Responses to the pool of IAV peptides (1-4) in presence of peptide (Normal subject PBMC) | Suppression of T cell responses to immunodominant HA peptides from circulating IAV strains (Normal subject PBMC)
AANIIGILHLILWILDRL [H7N9-10] | 68% | only partially inhibited | – | – | –
AVKLYKKLKREMTFHGA [H7N9-9] | 100% | – | did not suppress T cell responses | – | –
DKLYERVKRQLRENAEED [H7N9-8] | 89% | only partially inhibited | – | – | –
IVYWKQWLSLKNLTQ [H7N9-14A] | 100% | – | – | Reduced responses | –
KGILGFVFTLTVPSERGLQ [H7N9-3] | 97% | only partially inhibited | – | – | –
PKYVKSNRLVLATG [IAV-4, reference compound] | 96% | only partially inhibited | – | – | –
PKYVKSTKLRLATG [IAV-1, reference compound] | 100% | – | – | – | –
PRYVKQNTLKLATG [IAV-3, reference compound] | 78% | only partially inhibited | – | – | –
PRYVKQRSLLLATG [H7N9-13] | 100% | – | significantly suppressed T cell response to the pooled peptides; also recorded: significantly decreased | Reduced responses | significantly suppressed T cell response to IAV-3; also recorded: able to suppress responses
PRYVKQSTLKLATG [IAV-2, reference compound] | 73% | only partially inhibited | – | – | –
QITFMQALQLLLEVE [H7N9-12] | 100% | – | – | – | –
QPEWFRNVLSIAPIMFSNK [H7N9-4] | 100% | – | – | – | –
RIDFHWLMLNPNDTVTFS [H7N9-1] | 46% | only partially inhibited | – | – | –
SRKLLLIVQALRDNLEPG [H7N9-11] | increased response | response increased; also recorded: response was absent except when HLA-DR was blocked | – | – | –
WKQWLSLKNTLTQGSL [H7N9-14B] | – | – | – | Reduced responses | –
YAEMKWLLSNTDNAAFPQ [H7N9-2] | 100% | – | – | – | –
